Measurements taken from patent US20240309060A1, “POLYPEPTIDE BAX/NPM INHIBITORS” (TRUSTEES OF BOSTON UNIVERSITY, priority 2023, published 2024).
Square brackets hold non-standard residues; d marks the D form. βAla = NCCC(=O)O

Assays:
[1] = system: primary murine proximal tubule epithelial cells (PTEC); assay: MTT cell survival assay of kidney cells after ischemic stress in vitro induced by metabolic inhibitors; type: cell-based; conditions: for Cell survival data (ranking of peptides): normalized to negative control GFP fragment, FIG. 14; for Cytoprotective effects during ischemic stress in vitro: peptides 100 nM, metabolic inhibitors 60 min, recovery 6 hr, vs GFP negative control, FIG. 13
Protocol: FIG. 2 depicts an NPMB1 Alanine Scan. Relative kidney cell survival rate after 70 min ischemic stress in vitro induced by metabolic inhibitors in the presence of NPMB1 (control) vs. 19 different NPMBx polypeptides with single alanine substitutions (2 additional NPMB1 alanine residues were not substituted). Residue numbers (x axis) reflect Bax sequence that binds human NPM1; Survival data are normalized to NPMB1; post-ischemic kidney cell survival is shown in tertiles: (left-most group: 5-40% survival; middle-group: 55-70% and third group: 80-95%); n=3 separate experiments.
Relative kidney cell survival rate after 70 min ischemic stress in vitro induced by transient exposure to metabolic inhibitors in the presence of NPMB polypeptides (Agents 2, 5, 7, 14 that reflect alanine scan polypeptides A173, A187, A179, A176) vs. a non—specific polypeptide (GFP fragment). Survival data normalized to baseline (no stress); *P<0.01vs. baseline; t P<0.05 vs. stress; data represent 3 separate experiments; error bars represent mean+SD.
FIGS. 13A-13B depict the cytoprotective effects of select therapeutic peptides during ischemic stress in vitro. Primary murine proximal tubule epithelial cells (PTEC) were transiently exposed to metabolic inhibitors for 60 min and allowed to recover for 6 hr. to simulate ischemia in vivo; MTT assay estimated cell survival. “Control” (open bars); is a GFP fragment of similar size to the therapeutic peptides was used a negative control; NPMB1 (prototype) serves as a positive control. […] All peptides contained the nuclear localizing sequence (NLS) to enhance peptide delivery to the kidney, a beta linker and both carboxy-and amino terminal modifications to reduce susceptibility to protease digestion; data are mean+standard error; n=3 separate experiments. Figure discloses SEQ ID NOS 139, 134-135, 128, 127, and 138, respectively, in order of appearance.
Structure activity relationships of NPMB1 derivatives were determined through alanine scanning In these studies, 19 polypeptides were produced using methods shown in FIGS. 8-11 and their effect of kidney cell survival after ischemic stress was characterized using the MTT cell survival assay. Based on determination of relative kidney cell survival rate, polypeptides were grouped according to activity as shown in FIG. 2 (orange: 5-40% survival; blue 55-70% survival, or green 80-95% survival).

[2] = target: human NPM1 (Homo sapiens, UniProt P06748); assay: Surface plasmon resonance (SPR) binding of peptides to human NPM1; conditions: human NPM1, FIG. 14
Chain of human NPM1 (P06748 whole entry, the tested form may be a part): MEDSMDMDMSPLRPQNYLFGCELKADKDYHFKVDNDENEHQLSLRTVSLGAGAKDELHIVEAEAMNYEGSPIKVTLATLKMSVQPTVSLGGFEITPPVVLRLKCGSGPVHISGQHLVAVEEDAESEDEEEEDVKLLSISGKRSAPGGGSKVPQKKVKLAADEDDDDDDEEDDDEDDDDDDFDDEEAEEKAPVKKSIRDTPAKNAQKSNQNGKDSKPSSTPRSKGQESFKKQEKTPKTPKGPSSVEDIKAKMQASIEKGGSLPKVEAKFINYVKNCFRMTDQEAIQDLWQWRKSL
From the text: FIG. 14 depicts a table of the association rate, dissociation rate and the calculated equilibrium dissociation constant for 10 representative therapeutic peptides as measured by Surface Plasmon Resonance (SPR). Mean rates are derived from at least three different peptide concentrations at levels below saturation with human NPM1. Cell survival data are normalized to the negative control (a GFP fragment of similar size to the therapeutic peptides) and represent the mean of at least 3 separate experiments.
FIG. 15 depicts an on-off rate map. A graph of the off-rate (x-axis) and on-rate (y-axis) of 10 representative peptides from different sets of modified peptides. Diagonal dash-lines represent the equilibrium dissociation constant (KD) estimates the NPM1 binding affinity for each peptide based on the distance to the lines.
The 3D helical wheel projection scan predicted that 5 of 6 peptide residues (except for L185) with intermediate effects on post-ischemic cell survival cluster in a single surface domain (FIGS. 6 and 7). These surface residues are likely regulating the binding affinity Kd) between the therapeutic peptide and NPM1, the human target protein. Since binding affinity (Kd) between the peptide drug and NPMB1 partly predicts its efficacy, a high throughput, quantitative surface plasmon resonance (SPR) assay was developed.
SPR was measured for 10 novel polypeptides with select single or double mutations. Both the measured peptide “on” and “off” rates for binding human NPM1 markedly differed (FIG. 15). […] For most modified peptides, greater protection against ischemic stress positively correlated with a low Kd. […] Overall, SPR data combined with cell survival data adequately informs the selection of therapeutic peptides based on the quantifiable effects of R group modifications on these parameters. The combination of SPR binding affinity and cell survival data in vitro effectively rank orders therapeutic peptides for in vivo testing in animals.

[3] = system: primary murine proximal tubule epithelial cells (PTEC); conditions: J Am Soc Nephrol 30: 50-62, 2019; cited from earlier work
[4] = system: in vivo mouse model of ischemic AKI; conditions: J Am Soc Nephrol 30: 50-62, 2019; cited from earlier work
[5] = system: human nucleophosmin (NPM1); conditions: in vivo (Wang 2019); cited from earlier work
[6] = target: human nucleophosmin (NPM1) (Homo sapiens, UniProt P06748); conditions: previously discovered by the applicant's team; cited from earlier work
Chain of human nucleophosmin (NPM1) (Homo sapiens, UniProt P06748) (P06748 whole entry): as the sequence (P06748 whole entry, the tested form may be a part) above

| Substance | Cell survival data (ranking of peptides) [1] | Cytoprotective effects during ischemic stress in vitro [1] | Kd / NPM1 binding affinity in words [2] | Kidney cell death in a cell-based assay [3] | Kidney cell death in an in vivo mouse model of ischemic AKI [4] | NPM/Bax protein interaction [5] | Binding to human nucleophosmin (NPM1) [6] | Degree of cytoprotection during ischemic stress ([1]; alanine scan and pro-helical mutations) |
| --- | --- | --- | --- | --- | --- | --- | --- | --- |
| Ac-PKKKRKV-Bala-TATIAVAGVLTASLTIWKKMG-OMe [NPMB1-X-012] | most effective | most robust protection | relatively low Kd values |  |  |  |  |  |
| Ac-PKKKRKV-Bala-TATLFVAGVLTASLTIWKKMG-OMe [NPMB1-X-013] | most effective | most robust protection | relatively low Kd values |  |  |  |  |  |
| Ac-PKKKRKV-Bala-TVTIFVAGVLTASLTIWKKMG-OH [NPMB1, prototype peptide, positive control] |  |  |  | inhibits kidney cell death | inhibits kidney cell death | competitively inhibits | binds |  |
| Ac-PKKKRKV-Bala-TVTLFVAGVLTASLTIWKKMG-OMe [NPMB1-V-001] | most effective |  | relatively low NPM1 binding affinity |  |  |  |  | highly effective |
| Ac-RREEERREEERREEEK-Bala-TVTIFVAGVLTASLTIWKKMG-OH (Ac-RREEERREEERREEEK[βAla]TVTIFVAGVLTASLTIWKKMG-OH; SMILES CC[C@H](C)[C@H](NC(=O)[C@@H](NC(=O)[C@H](CC(C)C)NC(=O)[C@H](CO)NC(=O)[C@H](C)NC(=O)[C@@H](NC(=O)[C@H](CC(C)C)NC(=O)[C@@H](NC(=O)CNC(=O)[C@H](C)NC(=O)[C@@H](NC(=O)[C@H](Cc1ccccc1)NC(=O)[C@@H](NC(=O)[C@@H](NC(=O)[C@@H](NC(=O)[C@@H](NC(=O)CCNC(=O)[C@H](CCCCN)NC(=O)[C@H](CCC(=O)O)NC(=O)[C@H](CCC(=O)O)NC(=O)[C@H](CCC(=O)O)NC(=O)[C@H](CCCNC(=N)N)NC(=O)[C@H](CCCNC(=N)N)NC(=O)[C@H](CCC(=O)O)NC(=O)[C@H](CCC(=O)O)NC(=O)[C@H](CCC(=O)O)NC(=O)[C@H](CCCNC(=N)N)NC(=O)[C@H](CCCNC(=N)N)NC(=O)[C@H](CCC(=O)O)NC(=O)[C@H](CCC(=O)O)NC(=O)[C@H](CCC(=O)O)NC(=O)[C@H](CCCNC(=N)N)NC(=O)[C@H](CCCNC(=N)N)NC(C)=O)[C@@H](C)O)C(C)C)[C@@H](C)O)[C@@H](C)CC)C(C)C)C(C)C)[C@@H](C)O)[C@@H](C)O)C(=O)N[C@@H](Cc1c[nH]c2ccccc12)C(=O)N[C@@H](CCCCN)C(=O)N[C@@H](CCCCN)C(=O)N[C@@H](CCSC)C(=O)NCC(=O)O) [NPMB1-I-011] |  |  | relatively low Kd |  |  |  |  |  |
